Test results from patent publication US20120178147A1, “MICROBIAL CULTURES AND METHODS FOR ANAEROBIC BIOREMEDIATION” (priority 2009, published 2012).

Tests used:
[1] = test system: general bacteria; experiment: qRT-PCR of general bacteria 16S rRNA genes in DehaloR̂2 cultures; type: cell-based; details: for General bacteria 16S rRNA gene copies, day 22 / General bacteria 16S rRNA gene copies, initial: DehaloR̂2 with 1.5 μM TCC or 35 μM TCS
Protocol: (§1) Quantitative real-time PCR (qRT-PCR) was performed for enumeration of general 16S rRNA genes and Dehalococcoides 16S rRNA genes in culture DehaloR̂2 and Bio-Dechlor INOCULUM. The primers used for general 16S rRNA genes were Bac1055F (5′-ATG GYT GTC GTC ACCT-3′) and Bac1392R (5′-ACG GGC GGT GTG TAC-3′) (Ritalahti et al., 2006), and the probe was Bac16sTaq (FAM-CAA CGA GCG CAA CCC/3-BHQ-1/). The final volume of PCR reactions was 10 μL, and the final concentration of each chemical in a single reaction tube was: 1× RealMasterMix (Fisher Scientific, Pittsburgh, Pa.), 300 nM Probe, 300 nM each Primer, and 130 nM DNA samples. The PCR conditions were as follows: 2 min at 95° C. followed by 40 cycles of 10 s at 95° C., 20 s at 56° C. and 20 s at 68° C. The primers used for Dehalococcoides 16S rRNA genes were Dhc1200F (5′-CTGGAGCTAATCCCCAAAGCT-3′) and Dhc1271R (5′-CAA CTT CAT GCA GGC GGG-3′), and the probe was Dhc1240Pr (FAM-TCCTCAGTTCGGATTGCAGGC TGAA/3-BHQ-1) (He et al., 2003b). The final volume of PCR reactions was 10 μL, and the final concentration of each chemical in a single reaction tube was: 1× RealMasterMix (Fisher Scientific, Pittsburgh, Pa.), 200 nM Probe, 700 nM each Primer, and 130 nM DNA samples. The PCR conditions were as follows: 2 min at 95° C. followed by 40 cycles of 15 s at 95° C., 20 s at 58° C. and 20 s at 68° C.
(§2) Quantitative Real time PCR (qRT-PCR) was carried out in a spectrofluorimetric thermal cycler (Master cycler, epgradient S, Eppendorf). Calibration curves were performed in triplicate and a linear range of 6 orders of magnitude was obtained. Plasmids containing Dehalococcoides strain BAV1 16S rRNA genes were used as standards to construct general 16S rRNA genes and Dehalococcoides 16S rRNA genes calibration curves. The slopes of the calibration curves for general 16S rRNA genes and Dehalococcoides 16S rRNA genes were −3.46 and −3.94, and the Y intercepts were 38 and 44.2, respectively.
(§3) DNA Extraction and Quantitative Real-Time PCR. The BDI cultures and DehaloR^2 cultures were shaken vigorously first and then 10 ml of the mixed liquid was removed with a sterile syringe and dispensed into 10 1.5 ml micro centrifuge tubes. These micro centrifuge tubes were then centrifuged at 13,000 rpm for 15 min in order to make a pellet, and the pellet was used for DNA extraction. Qiagen DNeasy Blood & Tissue Kit with modifications to enhance lysis was used for DNA isolation from cultures. DNA samples were stored at −20° C.
(§4) Quantitative real-time PCR (qRT-PCR) was performed for enumeration of general 16S rRNA genes and Dehalococcoides 16S rRNA genes in BDI culture without TCC&TCS, BDI culture with 1.5 μM TCC, BDI culture with 35 μM TCS, D DehaloR̂2 culture without TCC&TCS, DehaloR^2 culture with 1.5 μM TCC and DehaloR̂2^2 culture with 35 μM TCS.
The primers used for general 16S rRNA genes were Bac1055F (5′-ATGGYTGTCGTCAGCT-3′) and Bac1392R (5′-ACGGGCGGTGTGTAC-3′) (Ritalahti et al., 2006), and the probe was Bac16sTaq (FAM-CAACGAGCGCAACCC/3-BHQ-1/). The final volume of PCR reactions was 10 μL, and the final concentration of each chemical in a single reaction tube was: 1× RealMasterMix (Fisher Scientific, Pittsburgh, Pa.), 300 nM Probe, 300 nM each Primer, and 130 nM DNA samples. The PCR conditions were as follows: 2 min at 95° C. followed by 40 cycles of 10 s at 95° C., 20 s at 56° C. and 20 s at 68° C.
The qRT-PCR was carried out in a spectrofluorimetric thermal cycler (Master cycler, epgradient S, Eppendorf). […]

[2] = test system: Dehalococcoides; experiment: qRT-PCR of Dehalococcoides 16S rRNA genes in BDI cultures; type: cell-based; details: for effect on growth of Dehalococcoides in BDI cultures: 1.5 μM TCC or 35 μM TCS; for Dehalococcoides 16S rRNA gene copies, day 27 / Dehalococcoides 16S rRNA gene copies, initial: BDI with 1.5 μM TCC or 35 μM TCS
Protocol: as §1, §2, §3, §4
The primers used for Dehalococcoides 16S rRNA genes were Dhc1200F (5′-[…]-3′) and Dhc1271R (5′-CAACTTCATGCAGGCGGG-3′), and the probe was Dhc1240Pr (FAM-[…]/3-BHQ-1) (He et al., 2003b). The final volume of PCR reactions was 10 μL, and the final concentration of each chemical in a single reaction tube was: 1× RealMasterMix (Fisher Scientific, Pittsburgh, Pa.), 200 nM Probe, 700 nM each Primer, and 130 nM DNA samples. The PCR conditions were as follows: 2 min at 95° C. followed by 40 cycles of 15 s at 95° C., 20 s at 58° C. and 20 s at 68° C.
as §2, with “The qRT-PCR” for “Quantitative Real time PCR (qRT-PCR)”

SMILES: O=C(Nc1ccc(Cl)cc1)Nc1ccc(Cl)c(Cl)c1 [TCC, 3-(4-chlorophenyl)-1-(3,4-dichlorphenyl) urea]
- General bacteria 16S rRNA gene copies, day 22 [1]: 1.6×10^8 gene copies/ml
- General bacteria 16S rRNA gene copies, initial [1]: 1.3×10^7 gene copies/ml
- effect on growth of Dehalococcoides in BDI cultures [2]: significantly inhibited the growth of Dehalococcoides
- Dehalococcoides 16S rRNA gene copies, day 27 [2]: 1.9×10^7 gene copies/ml
- Dehalococcoides 16S rRNA gene copies, initial [2]: 6.1×10^7 gene copies/ml

SMILES: Oc1cc(Cl)ccc1Oc1ccc(Cl)cc1Cl [TCS, 5-chloro-2-[2,4-dichloro-phenoxy]-phenol]
- General bacteria 16S rRNA gene copies, day 22 [1]: 7.5×10^7 gene copies/ml
- General bacteria 16S rRNA gene copies, initial [1]: 2.2×10^7 gene copies/ml
- General bacteria 16S rRNA gene copies, day 22 relative to initial ([1]; DehaloR̂2 with 35 μM TCS): 3.5 times
- effect on growth of Dehalococcoides in BDI cultures [2]: significantly inhibited the growth of Dehalococcoides
- Dehalococcoides 16S rRNA gene copies, day 27 [2]: 9.4×10^6 gene copies/ml
- Dehalococcoides 16S rRNA gene copies, initial [2]: 8.9×10^7 gene copies/ml
